Values after ≈ are worked out from the molar mass of the structure shown. Where two headings read alike, the source gives them in different places.
Assays:
Assay type in all cases: cell-based
[1] = tested on: Pseudomonas aeruginosa 12-4-4; experiment: In vitro MIC, agar dilution, Pseudomonas aeruginosa 12-4-4; conditions: 1244; Pseudomonas aeruginosa 12-4-4; agar dilution, 35° C., 18 hours, nutrient agar; read-out: Minimal Inhibitory Concentration
Procedure: (§1) The in vitro activity of representative compounds of the present invention are given in the following Table I in terms of minimal inhibitory concentration. The test used was the standard agar dilution test using a Steers multiple inocula replicator and incubating at 35° C. for 18 hours in conventional nutrient agar.

[2] = tested on: Klebsiella pneumoniae W75-2; experiment: In vitro MIC, agar dilution, Klebsiella pneumoniae W75-2; conditions: W752; Klebsiella pneumoniae W75-2; agar dilution, 35° C., 18 hours, nutrient agar; read-out: Minimal Inhibitory Concentration
Procedure: as §1

[3] = tested on: Escherichia coli OSU75-1; experiment: In vitro MIC, agar dilution, Escherichia coli OSU75-1; conditions: OSU751, 35° C., 18 hours, nutrient agar, read-out: Minimal Inhibitory Concentration
Procedure: as §1

[4] = tested on: Serratia marcens K77-1; experiment: In vitro MIC, agar dilution, Serratia marcens K77-1; conditions: K771; Serratia marcens K77-1; agar dilution, 35° C., 18 hours, nutrient agar; read-out: Minimal Inhibitory Concentration
Procedure: as §1

[5] = tested on: Enterobacter cloacae MA75-1; experiment: In vitro MIC, agar dilution, Enterobacter cloacae MA75-1; conditions: MA751; Enterobacter cloacae MA75-1; agar dilution, 35° C., 18 hours, nutrient agar; read-out: Minimal Inhibitory Concentration
Procedure: as §1

[6] = tested on: Pseudomonas aeruginosa G236; experiment: In vitro MIC, agar dilution, Pseudomonas aeruginosa G236; conditions: Pseudomonas aeruginosa G236; agar dilution, 35° C., 18 hours, nutrient agar; read-out: Minimal Inhibitory Concentration
Procedure: as §1

[7] = tested on: Klebsiella pneumoniae AD; experiment: In vitro MIC, agar dilution, Klebsiella pneumoniae AD; conditions: Klebsiella pneumoniae AD; agar dilution, 35° C., 18 hours, nutrient agar; read-out: Minimal Inhibitory Concentration
Procedure: as §1

[8] = tested on: Enterobacter cloacae OSU75-2; experiment: In vitro MIC, agar dilution, Enterobacter cloacae OSU75-2; conditions: OSU752; Enterobacter cloacae OSU75-2; agar dilution, 35° C., 18 hours, nutrient agar; read-out: Minimal Inhibitory Concentration
Procedure: as §1

[9] = tested on: Staphylococcus aureus Q74-1; experiment: In vitro MIC, agar dilution, Staphylococcus aureus Q74-1; conditions: Q741; Staphylococcus aureus Q74-1; agar dilution, 35° C., 18 hours, nutrient agar; read-out: Minimal Inhibitory Concentration
Procedure: as §1

[10] = tested on: Proteus morganii K72; experiment: In vitro MIC, agar dilution, Proteus morganii K72; conditions: Morganella morganii; Proteus morganii K72; agar dilution, 35° C., 18 hours, nutrient agar; read-out: Minimal Inhibitory Concentration
Procedure: as §1

[11] = tested on: Enterobacter aerogenes UR76-3; experiment: In vitro MIC, agar dilution, Enterobacter aerogenes UR76-3; conditions: Klebsiella aerogenes, UR763; Enterobacter aerogenes UR76-3; agar dilution, 35° C., 18 hours, nutrient agar; read-out: Minimal Inhibitory Concentration
Procedure: as §1

[12] = tested on: Serratia K101; experiment: In vitro MIC, agar dilution, Serratia K101; conditions: Serratia K101; agar dilution, 35° C., 18 hours, nutrient agar; read-out: Minimal Inhibitory Concentration
Procedure: as §1

[13] = tested on: Klebsiella pneumoniae MA75-1; experiment: In vitro MIC, agar dilution, Klebsiella pneumoniae MA75-1; conditions: MA751; Klebsiella pneumoniae MA75-1; agar dilution, 35° C., 18 hours, nutrient agar; read-out: Minimal Inhibitory Concentration
Procedure: as §1

[14] = tested on: Pseudomonas aeruginosa UCS 76-13; experiment: In vitro MIC, agar dilution, Pseudomonas aeruginosa UCS 76-13; conditions: UCS7613; Pseudomonas aeruginosa UCS 76-13; agar dilution, 35° C., 18 hours, nutrient agar; read-out: Minimal Inhibitory Concentration
Procedure: as §1

[15] = tested on: Escherichia coli W75-1; experiment: In vitro MIC, agar dilution, Escherichia coli W75-1; conditions: W751, 35° C., 18 hours, nutrient agar, read-out: Minimal Inhibitory Concentration
Procedure: as §1

[16] = tested on: Klebsiella pneumoniae UR76-1; experiment: In vitro MIC, agar dilution, Klebsiella pneumoniae UR76-1; conditions: UR761; Klebsiella pneumoniae UR76-1; agar dilution, 35° C., 18 hours, nutrient agar; read-out: Minimal Inhibitory Concentration
Procedure: as §1

[17] = tested on: Enterococcus SM77-15; experiment: In vitro MIC, agar dilution, Enterococcus SM77-15; conditions: SM7715; Enterococcus SM77-15; agar dilution, 35° C., 18 hours, nutrient agar; read-out: Minimal Inhibitory Concentration
Procedure: as §1

[18] = tested on: Klebsiella pneumoniae W75-4; experiment: In vitro MIC, agar dilution, Klebsiella pneumoniae W75-4; conditions: W754; Klebsiella pneumoniae W75-4; agar dilution, 35° C., 18 hours, nutrient agar; read-out: Minimal Inhibitory Concentration
Procedure: as §1

[19] = tested on: Escherichia coli 311; experiment: In vitro MIC, agar dilution, Escherichia coli 311; conditions: 35° C., 18 hours, nutrient agar, read-out: Minimal Inhibitory Concentration
Procedure: as §1

[20] = tested on: Serratia marcens QHC77-2; experiment: In vitro MIC, agar dilution, Serratia marcens QHC77-2; conditions: QHC772; Serratia marcens QHC77-2; agar dilution, 35° C., 18 hours, nutrient agar; read-out: Minimal Inhibitory Concentration
Procedure: as §1

[21] = tested on: Staphylococcus aureus Q74-6; experiment: In vitro MIC, agar dilution, Staphylococcus aureus Q74-6; conditions: Q746; Staphylococcus aureus Q74-6; agar dilution, 35° C., 18 hours, nutrient agar; read-out: Minimal Inhibitory Concentration
Procedure: as §1

[22] = tested on: Proteus rettgeri N76-1; experiment: In vitro MIC, agar dilution, Proteus rettgeri N76-1; conditions: Providencia rettgeri, N761; Proteus rettgeri N76-1; agar dilution, 35° C., 18 hours, nutrient agar; read-out: Minimal Inhibitory Concentration
Procedure: as §1

[23] = tested on: Pseudomonas aeruginosa PD05141; experiment: In vitro MIC, agar dilution, Pseudomonas aeruginosa PD05141; conditions: Pseudomonas aeruginosa PD05141; agar dilution, 35° C., 18 hours, nutrient agar; read-out: Minimal Inhibitory Concentration
Procedure: as §1

[24] = tested on: Escherichia coli ESS22-31; experiment: In vitro MIC, agar dilution, Escherichia coli ESS22-31; conditions: read-out: Minimal Inhibitory Concentration
Procedure: as §1

[25] = tested on: Proteus vulgaris N74-1; experiment: In vitro MIC, agar dilution, Proteus vulgaris N74-1; conditions: N741, 35° C., 18 hours, nutrient agar, read-out: Minimal Inhibitory Concentration
Procedure: as §1

Row | SMILES | MIC [1] [µg/mL] | MIC [2] [µg/mL] | MIC [3] [µg/mL] | MIC [4] [µg/mL] | MIC [5] [µg/mL] | MIC [6] [µg/mL] | MIC [7] [µg/mL] | MIC [8] [µg/mL] | MIC [9] [µg/mL] | MIC [10] [µg/mL] | MIC [11] [µg/mL] | MIC [12] [µg/mL] | MIC [13] [µg/mL] | MIC [14] [µg/mL] | MIC [15] [µg/mL] | MIC [16] [µg/mL] | MIC [17] [µg/mL] | MIC [18] [µg/mL] | MIC [19] [µg/mL] | MIC [20] [µg/mL] | further results
1 | CC(=O)OCC1=C(C(=O)O)N2C(=O)[C@@H](NC(=O)[C@H](N)c3ccccc3)[C@H]2SC1 [Compound XI, Cephaloglycin, reference compound] | > 128 | 2 (≈ 4.93 µM) | 2 (≈ 4.93 µM) | > 128 | > 128 | > 128 | 0.5 (≈ 1.23 µM) | > 128 | 1 (≈ 2.47 µM) | > 128 | 2 (≈ 4.93 µM) | > 128 | 1 (≈ 2.47 µM) | > 128 | 2 (≈ 4.93 µM) | 16 (≈ 39.5 µM) | 64 (≈ 158 µM) | 8 (≈ 19.7 µM) | 2 (≈ 4.93 µM) | > 128 | MIC [21]: 0.12 µg/mL (≈ 0.296 µM); MIC [22]: > 128 µg/mL; MIC [23]: > 128 µg/mL; MIC ([24]; Escherichia coli, ESS2231, 18 h): 0.12 µg/mL (≈ 0.296 µM); MIC [25]: > 128 µg/mL
2 | CCN1CCN(C(=O)NC(C(=O)NC2C(=O)N3C(C(=O)O)=C(CSc4nnc(-n5cccn5)n4N)CS[C@H]23)c2ccc(O)cc2)C(=O)C1=O (some centres unmarked) [Compound VII, 7-[2-(4-Ethyl-2,3-dioxo-1-piperazinecarboxamido)-2-(p-hydroxyphenyl)acetamido]-3-[4-amino-5-(1-pyrazolyl)-1,2,4-triazol-3-ylthiomethyl]-3-cephem-4-carboxylic acid] | 16 (≈ 22.5 µM) | 2 (≈ 2.81 µM) | 1 (≈ 1.41 µM) | 64 (≈ 89.9 µM) | > 128 | 32 (≈ 45 µM) | 1 (≈ 1.41 µM) | 16 (≈ 22.5 µM) | 2 (≈ 2.81 µM) | 32 (≈ 45 µM) | 0.25 (≈ 0.351 µM) | 32 (≈ 45 µM) | 1 (≈ 1.41 µM) | 64 (≈ 89.9 µM) | 1 (≈ 1.41 µM) | 16 (≈ 22.5 µM) | 128 (≈ 180 µM) | 32 (≈ 45 µM) | 0.5 (≈ 0.703 µM) | 128 (≈ 180 µM) | MIC [21]: 4 µg/mL (≈ 5.62 µM); MIC [22]: 8 µg/mL (≈ 11.2 µM); MIC [23]: 64 µg/mL (≈ 89.9 µM); MIC ([24]; ESS2231, Escherichia coli ESS22-31, agar dilution, 35° C., 18 hours, nutrient agar): ≤ 0.12 µg/mL; MIC [25]: 32 µg/mL (≈ 45 µM)

— patent publication US4336375A, “Cephalosporanic acid derivatives” (American Cyanamid Company, priority 1980, dated 1982)
